Reference: patent US20260373248A1, “DEGRADABLE PEPTOIDS” (Medici Therapeutics, Inc., priority 2023, published 2026)
Starred links: 1 amine or outer side, 2 acyl side, 3 side chain; linkers in the order of their positions; H or OH if unused. Non-standard residues stand in square brackets, D forms with d. Residues, ends and D or L forms follow the SMILES beside them. *: point of attachment. Gly(N-(3-decanoyloxypropyl)) = CCCCCCCCCC(=O)OCCCNCC(=O)O; N(3-lauroyloxypropyl)Gly = CCCCCCCCCCCC(=O)OCCCNCC(=O)O; N(2-decanoyloxyethyl)Gly = CCCCCCCCCC(=O)OCCNCC(=O)O; N(3-imidazol-1-ylpropyl)Gly = O=C(O)CNCCCn1ccnc1; N(2-ethylhexyl)Gly = CCCCC(CC)CNCC(=O)O; X2 = CCCCCCC(CCCC)CN(CC(=O)[*:2])[*:1]; N(CH(CH2OH)2)Gly = O=C(O)CNC(CO)CO; For = O=C*

How the values were obtained:
[1] = Delivery vehicle size and polydispersity by dynamic light scattering; type: physicochemical
Procedure, shortened: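 Dynamic light scattering in PBS gave size and polydispersity of peptoid LNPs. These were dialyzed overnight at 4 °C into tris-sucrose buffer pH 7.4 after microfluidic 1:3 volume mixing of mRNA in pH 5.0 citrate with ethanol lipids (peptoid:DSPC:cholesterol:DMG-PEG2000 20:1.79:7.16:1.84 w/w).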

[2] = tested on: mRNA; assay: mRNA encapsulation (modified Quant-iT RiboGreen assay); type: physicochemical; settings: for mean percent encapsulation of RNA: RiboGreen, without vs with Triton X-100; for % Encapsulation: mRNA
Procedure, shortened: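 Encapsulated fraction was calculated by comparing RiboGreen signal (excitation 485 nm, emission 530 nm) of intact particles with that of particles lysed by a 10-min Triton X-100 treatment. Total mRNA concentration was taken from the lysed samples.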

[3] = tested on: firefly luciferase; assay: In vivo firefly luciferase expression after intravenous injection of fLuc mRNA delivery vehicles (IVIS imaging); parameters: species or system female Balb/c mice; settings: for Total Flux (luciferase expression): fLuc mRNA, intravenous, Balb/c mice; for Total Flux: mice, 2.5 ug fLuc mRNA intravenously, 6 hours post-injection
Procedure, shortened: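 Read-out is total photon flux per region of interest, from whole-body IVIS images taken 10 minutes after IP D-luciferin (30 mg/mL, 10 μL/g) and from excised organs. Female Balb/c mice aged 6-8 weeks received 2.5 ug fLuc mRNA Nutshells intravenously 6 hours before imaging.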

[4] = tested on: hEPO; assay: Quantification of hEPO in serum after IV injection of mRNA (Human EPO ELISA); type: in vivo; settings: Balb/c mice, 2.5 μg mRNA IV, serum after 6 hours
Procedure, shortened: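 Balb/c mice received 2.5 μg mRNA encoding human EPO by IV injection; serum was collected after 6 hours. hEPO was measured by sandwich ELISA (biotin-conjugate, streptavidin-HRP, TMB, A450) against kit standards (mIU/mL) and an external standard (ng/mL), with values interpolated and corrected for dilution.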

[5] = Peptoid quantity remaining in liver by HPLC-TOF mass spectrometry; type: in vivo; settings: liver homogenate
Procedure, shortened: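 Whole liver weighed; 20 mg tissue bead-homogenized in IPA/MeOH (8/2) with internal standard, centrifuged, supernatant run on BEH C8 HPLC-TOF MS. Peptoid concentration derived from linear calibration curve (0.2-50 μg/g) prepared in spiked untreated liver.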

[6] = tested on: luciferase; assay: Luciferase expression after local (intramuscular or subcutaneous) administration of mRNA; type: in vivo; settings: mRNA 0.01 mpk, 6 hours; for IM Flux: intramuscular; for SC Flux: subcutaneous
Procedure, shortened: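 Bioluminescence read 6 hours after fLuc mRNA dosing (peptoid Nutshells; 0.01 mpk S.C. or I.M., 0.1 mpk intratumoral) in female Balb/c mice aged 6-8 weeks. D-luciferin injected IP, whole-body imaging after 10 minutes, then organ imaging; total photon flux per region of interest.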

[7] = DLS in PBS, peptoid:DSPC:Cholesterol:DMG-PEG2000 weight ratio 20:1.79:7.16:1.84, mRNA

| SMILES | PDI [1, 7] | Particle Size [1, 7] [nm] | Particle Size ([1]; formulation recipe D22) [nm] | mean percent encapsulation of RNA [2] [%] | % Encapsulation ([2]; formulation recipe D22) [%] | Total Flux (luciferase expression) ([3]; formulation recipe D22) [p/s] | Total Flux [3] [p/s] | hEPO [4] [ng/mL] | % of injected dose remaining in liver [5] [%] | IM Flux [6] [p/s] | SC Flux [6] [p/s] | Particle Size ([1]; formulation recipe F2) [nm] | % Encapsulation ([2]; formulation recipe F2) [%] | Total Flux (luciferase expression) ([3]; formulation recipe F2) [p/s] | other results |
| --- | --- | --- | --- | --- | --- | --- | --- | --- | --- | --- | --- | --- | --- | --- | --- |
| CCCCCCCCCC(=O)OCCCN(CC(=O)N(CC(=O)N(CC(=O)N(CCCOC(=O)CCCCCCCCC)CC(=O)N(CC(N)=O)CC(CC)CCCC)CC(CC)CCCC)CC(CC)CCCC)C(=O)CN(CC(CC)CCCC)C(=O)CNC(CO)CO (stereo not drawn) [Compound 5] (H-[N(CH(CH2OH)2)Gly][N(2-ethylhexyl)Gly][Gly(N-(3-decanoyloxypropyl))][N(2-ethylhexyl)Gly][N(2-ethylhexyl)Gly][Gly(N-(3-decanoyloxypropyl))][N(2-ethylhexyl)Gly]-NH2) | 0.076 | 86.2 | 86.2 | 84.8 | 84.8 | 1.77E+09 | 1.77E+09 | 278 | 14.71 | 1.62E+08 | 1.71E+08 |  |  |  | Particle Size ([1]; formulation recipe O3): 81.6 nm; Particle Size ([1]; formulation recipe O7): 51.7 nm; % Encapsulation ([2]; formulation recipe O3): 82.2%; % Encapsulation ([2]; formulation recipe O7): 93.5%; Total Flux (luciferase expression) ([3]; formulation recipe O3): 3.25E+09 p/s; Total Flux (luciferase expression) ([3]; formulation recipe O7): 1.93E+09 p/s |
| CCCCCCCCCC(=O)OCCCN(CC(=O)N(CC(=O)N(CC(=O)N(CCCOC(=O)CCCCCCCCC)CC(=O)N(CC(N)=O)CC(CCCC)CCCCCC)CC(CC)CCCC)CC(CCCC)CCCCCC)C(=O)CN(CC(CC)CCCC)C(=O)CNC(CO)CO (stereo not drawn) [Compound 61] (H-[N(CH(CH2OH)2)Gly][N(2-ethylhexyl)Gly][Gly(N-(3-decanoyloxypropyl))][X2][N(2-ethylhexyl)Gly][Gly(N-(3-decanoyloxypropyl))][X2]-NH2) | 0.081 | 75.4 |  | 95.1 |  |  | 1.96E+09 | 428 | 13.39 | 1.45E+08 | 1.99E+08 |  |  |  |  |
| CCCCCCCCCCCC(=O)OCCCN(CC(=O)N(CC(=O)N(CC(=O)N(CCCn1ccnc1)CC(=O)N(CC(=O)N(CC(=O)N(CCCOC(=O)CCCCCCCCCCC)CC(=O)N(CC(N)=O)CC(CC)CCCC)Cc1ccco1)CC(CC)CCCC)CC(CC)CCCC)Cc1ccco1)C(=O)CN(C=O)CC(CC)CCCC (stereo not drawn) [Compound 100] | 0.103 | 109.3 |  | 68.4 |  |  | 2.32E+08 | 59.4 | 19.76 | 4.86E+07 | 6.16E+07 |  |  |  |  |
| CCCCCCCCCC(=O)OCCN(CC(=O)N(CCOC(=O)CCCCCCCCC)CC(=O)N(CC(=O)N(CCOC(=O)CCCCCCCCC)CC(=O)N(CCOC(=O)CCCCCCCCC)CC(=O)N(CC(N)=O)CC(CC)CCCC)CC(CC)CCCC)C(=O)CNC(CO)CO (stereo not drawn) [Compound 16] (H-[N(CH(CH2OH)2)Gly][N(2-decanoyloxyethyl)Gly][N(2-decanoyloxyethyl)Gly][N(2-ethylhexyl)Gly][N(2-decanoyloxyethyl)Gly][N(2-decanoyloxyethyl)Gly][N(2-ethylhexyl)Gly]-NH2) | 0.135 | 90.0 |  | 55.7 |  |  | 9.70E+09 | 422 | 6.65 | 3.09E+08 | 5.62E+08 | 71.0 | 90.8 | 2.35E+09 | Particle Size ([1]; formulation recipe R1): 59.8 nm; Particle Size ([1]; formulation recipe R5): 57.2 nm; Particle Size ([1]; formulation recipe R7): 69.1 nm; Particle Size ([1]; formulation recipe R9): 59.0 nm; % Encapsulation ([2]; formulation recipe R1): 89.4%; % Encapsulation ([2]; formulation recipe R5): 92.2%; % Encapsulation ([2]; formulation recipe R7): 87.8%; % Encapsulation ([2]; formulation recipe R9): 93.3%; Total Flux (luciferase expression) ([3]; formulation recipe R1): 5.73E+08 p/s; Total Flux (luciferase expression) ([3]; formulation recipe R5): 6.72E+08 p/s; Total Flux (luciferase expression) ([3]; formulation recipe R7): 1.81E+09 p/s; Total Flux (luciferase expression) ([3]; formulation recipe R9): 1.14E+09 p/s |
| CCCCCCCCCC(=O)OCCN(CC(=O)N(CCOC(=O)CCCCCCCCC)CC(=O)N(CC(=O)N(CCOC(=O)CCCCCCCCC)CC(=O)N(CCOC(=O)CCCCCCCCC)CC(=O)N(CC(N)=O)CC(CC)CCCC)CC(CC)CCCC)C(=O)CNCCCn1ccnc1 (stereo not drawn) [Compound 79] (H-[N(3-imidazol-1-ylpropyl)Gly][N(2-decanoyloxyethyl)Gly][N(2-decanoyloxyethyl)Gly][N(2-ethylhexyl)Gly][N(2-decanoyloxyethyl)Gly][N(2-decanoyloxyethyl)Gly][N(2-ethylhexyl)Gly]-NH2) | 0.108 | 61.0 |  | 97.5 |  |  | 1.60E+09 | 320 | 19.72 | 1.31E+08 | 1.59E+08 |  |  |  |  |
| CCCCCCCCCCCC(=O)OCCCN(CC(=O)N(CC(=O)N(CCCn1ccnc1)CC(=O)N(CC(=O)N(CCCOC(=O)CCCCCCCCCCC)CC(=O)N(CC(N)=O)CC(CC)CCCC)CC(CC)CCCC)CC(CC)CCCC)C(=O)CN(C=O)CC(CC)CCCC (stereo not drawn) [Compound 82] (For-[N(2-ethylhexyl)Gly][N(3-lauroyloxypropyl)Gly][N(2-ethylhexyl)Gly][N(3-imidazol-1-ylpropyl)Gly][N(2-ethylhexyl)Gly][N(3-lauroyloxypropyl)Gly][N(2-ethylhexyl)Gly]-NH2) | 0.163 | 81.5 | 81.5 | 70.7 | 70.7 | 2.62E+09 | 2.62E+09 | 600 | 15.77 | 1.24E+08 | 1.41E+08 | 65.9 | 75.3 | 4.10E+08 | Particle Size ([1]; formulation recipe X29): 72.1 nm; Particle Size ([1]; formulation recipe X145): 80.7 nm; % Encapsulation ([2]; formulation recipe X29): 62.0%; % Encapsulation ([2]; formulation recipe X145): 70.9%; Total Flux (luciferase expression) ([3]; formulation recipe X29): 2.83E+09 p/s; Total Flux (luciferase expression) ([3]; formulation recipe X145): 5.70E+09 p/s |
